This note sets out measurements from PubChem BioAssay AID651551 (Sanford-Burnham Center for Chemical Genomics, 2012).

Calls of active or inactive are those of the source.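 The calls were made as follows: active = compounds blocking the Peg3 reporter with IC50 up to 10 µM at 6 or 24 hours, yet inert on a control reporter; inactive = the rest.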

As usually defined, the IC50 is the concentration that inhibits the measured activity by half.

One test concerns the target PEG-3 (UniProt Q6IN02). In words: GAPDH versus PEG-3 reporter suppression – cell-based, luminescence, counter-screen for PEG-3 promoter inhibitor project, SAR follow-up (AID 651551). Conditions: HeLa PEG-Prom / GAPDH luciferase reporter, 6 or 24 h, mean of runs.
Assay in test [1]: as above
Conditions: HeLa PEG-Prom / GAPDH luciferase reporter, 6 or 24 h, GAPDH, mean of runs. (In general: Reporter assays use an easily measured gene product as a stand-in for the process of interest.)

Turning to `COc1ccc(-n2nc(C(=O)NCC(=O)Nc3cc(OC)c(OC)c(OC)c3)c3ccccc3c2=O)cc1OC`, the IC50 was > 99 µM (inactive) on PEG-3 (6 h), > 99 µM (inactive) on PEG-3 (24 h), > 99 µM (inactive) in test [1] (6 h) and 6.31 µM in test [1] (24 h).

Consider `Cc1nc(NC(=O)c2ccccc2)sc1-c1csc(Nc2cccc(Cl)c2C)n1`, for which the IC50 (on PEG-3 (6 h); on PEG-3 (24 h); in test [1] (6 h)) was > 99 µM (inactive) throughout. For the same compound, in test [1] (24 h), the IC50 entry is “inactive”.

As for `CCn1cc(C(=O)NCc2ccco2)c(=O)c2cc(S(=O)(=O)N3CCCC3)ccc21`, the IC50 (at PEG-3 (6 h); at PEG-3 (24 h); in test [1] (6 h)) was > 99 µM (inactive) throughout. For the same compound, the IC50 result in test [1] (24 h) is “inactive”.

On to `COc1ccc(-n2nc(C(=O)NCC(=O)Nc3ccc(OC)c(OC)c3)c3ccccc3c2=O)cc1`, for which the IC50 on PEG-3 (6 h) and on PEG-3 (24 h) was > 99 µM (inactive) in each case. Moreover, the IC50 entry in test [1] (6 h) and in test [1] (24 h) was “inactive” each time.

Turning to `CCCn1nc(C(=O)Nc2nc3ccccc3s2)c2ccccc2c1=O`, the IC50 (on PEG-3 (6 h); at PEG-3 (24 h); in test [1] (6 h)) was > 99 µM (inactive) each time. Further, the IC50 result in test [1] (24 h) is “inactive”.

Take `Cc1cc(NC(=O)c2ccccc2)n(-c2nc3ccccc3n2C)n1`: the IC50 entry on PEG-3 (6 h) is “inactive”. In addition, the IC50 (on PEG-3 (24 h); in test [1] (6 h); in test [1] (24 h)) was > 99 µM (inactive) throughout.

`O=C(Nc1nccs1)c1nn(-c2ccccc2)c(=O)c2ccccc12`: the IC50 at PEG-3 (6 h) was > 99 µM (inactive); on PEG-3 (24 h), > 99 µM (inactive); in test [1] (24 h), 8.39 µM. Further, the IC50 result in test [1] (6 h) was “inactive”.

As for `CCn1nc(C(=O)Nc2nc(-c3ccccn3)cs2)c2ccccc2c1=O`, the IC50 result (at PEG-3 (6 h); in test [1] (6 h)) was “inactive” throughout. The values for the 50% inhibitory concentration (IC50) (at PEG-3 (24 h); in test [1] (24 h)) were 6.13 µM and 3.96 µM, respectively.

In the case of `Cc1nc(NC(=O)c2ccccc2)sc1-c1csc(Nc2ccccc2Cl)n1`, the IC50 on PEG-3 (6 h) was > 99 µM (inactive); on PEG-3 (24 h), > 99 µM (inactive); in test [1] (6 h), > 99 µM (inactive); in test [1] (24 h), 7.52 µM.

For the compound `Cc1cc(NC(=O)c2ccccc2C(F)(F)F)n(-c2nc3ccccc3[nH]2)n1`, the IC50 entry (on PEG-3 (6 h); at PEG-3 (24 h); in test [1] (6 h)) was “inactive” throughout. Moreover, in test [1] (24 h), the IC50 was 8.73 µM.

Take `O=C(Nc1nc2ccccc2s1)c1nn(-c2ccccc2)c(=O)c2ccccc12`: the IC50 (at PEG-3 (6 h); at PEG-3 (24 h); in test [1] (6 h)) was > 99 µM (inactive) in each case. The IC50 entry in test [1] (24 h) is “inactive”.

In the case of `Cc1nc(NC(=O)c2ccccc2)sc1-c1csc(Nc2ccccc2)n1`, the IC50 on PEG-3 (6 h) is > 99 µM (inactive). Also, the IC50 entry (at PEG-3 (24 h); in test [1] (6 h); in test [1] (24 h)) was “inactive” throughout.

`COc1ccc(Cl)cc1Nc1nc(-c2sc(NC(=O)c3ccccc3)nc2C)cs1`: the IC50 entry on PEG-3 (6 h) and on PEG-3 (24 h) was “inactive” throughout. In addition, the IC50 in test [1] (6 h) is > 99 µM (inactive); in test [1] (24 h) it was 9.9 µM.

Consider `COCCCNC(=O)c1ccc(Cn2c(=O)c3ccccc3n(Cc3ccccc3C#N)c2=O)cc1`, for which the IC50 on PEG-3 (6 h) is > 99 µM (inactive); at PEG-3 (24 h), 6.52 µM; in test [1] (6 h), > 99 µM (inactive); in test [1] (24 h), 4.68 µM.

For the compound `Cc1cc(NC(=O)c2ccccc2C)n(-c2nc3ccccc3[nH]2)n1`, the IC50 entry (on PEG-3 (6 h); on PEG-3 (24 h); in test [1] (24 h)) was “inactive” each time. Moreover, the IC50 in test [1] (6 h) was > 99 µM (inactive).

`Cc1cc(NC(=O)c2ccccc2)n(-c2nc3ccccc3[nH]2)n1`: the IC50 result at PEG-3 (6 h) and on PEG-3 (24 h) was “inactive” each time. The IC50 in test [1] (6 h) and in test [1] (24 h) was > 99 µM (inactive) each time.

With `CCCn1nc(C(=O)Nc2nc(-c3ccccn3)cs2)c2ccccc2c1=O`, the values for the IC50 (on PEG-3 (6 h); in test [1] (24 h)) were 8.66 µM and 7.06 µM, respectively. The IC50 result (at PEG-3 (24 h); in test [1] (6 h)) was “inactive” throughout.

Turning to `Cc1cc(NC(=O)c2cccc(C)c2C)n(-c2nc3ccccc3[nH]2)n1`, the IC50 result (on PEG-3 (6 h); in test [1] (24 h)) was “inactive” in each case. For the same compound, the IC50 (at PEG-3 (24 h); in test [1] (6 h)) was > 99 µM (inactive) each time.

Take `COc1ccc(-n2nc(C(=O)NCC(=O)Nc3cccc(OC)c3)c3ccccc3c2=O)cc1`: the IC50 (at PEG-3 (6 h); at PEG-3 (24 h); in test [1] (6 h)) was > 99 µM (inactive) in each case. The IC50 entry in test [1] (24 h) is “inactive”.

Take `O=C(Nc1nc(-c2ccccc2)cs1)c1nn(-c2ccccc2)c(=O)c2ccccc12`: the IC50 (at PEG-3 (6 h); at PEG-3 (24 h); in test [1] (6 h); in test [1] (24 h)) was > 99 µM (inactive) in each case.

Regarding `COc1ccccc1Nc1nc(-c2sc(NC(=O)c3ccco3)nc2C)cs1`, the values for the IC50 (at PEG-3 (6 h); at PEG-3 (24 h); in test [1] (24 h)) were > 99 µM (inactive), > 99 µM (inactive) and 4.17 µM, respectively. In addition, the IC50 result in test [1] (6 h) is “inactive”.

As to `CCCn1nc(C(=O)Nc2nc(-c3ccncc3)cs2)c2ccccc2c1=O`, the IC50 result (at PEG-3 (6 h); on PEG-3 (24 h); in test [1] (6 h)) was “inactive” in each case. In addition, the IC50 in test [1] (24 h) is 5.32 µM.

Turning to `Cc1ccc(Cl)cc1Nc1nc(-c2sc(NC(=O)c3ccco3)nc2C)cs1`, the IC50 entry (at PEG-3 (6 h); on PEG-3 (24 h); in test [1] (6 h)) was “inactive” throughout. Further, the IC50 in test [1] (24 h) is 7.63 µM.
